The source of these data is patent US5679828A (priority 1995, dated 1997).

Molecules are shown by their SMILES. Read-outs that look alike come from different tables or passages of the source.

The subject of series [1] is HIV-1. The series is described as follows: HIV-1 replication in acutely infected H9 lymphocytes (p24 antigen ELISA). On the set-up: TI50: unit not given beside the values. The series is classed as cell-based, HIV-1 (IIIB isolate). The procedure: The cell lines were used in experiments only when in the logarithmic phase of growth, whereas uninfected peripheral blood mononuclear cells (PBMCs) were first stimulated with PHA (1 μg/mL) for three days. […] The cell lines and PBMCs were washed thoroughly to remove unadsorbed virions and resuspended at 4×10^5 cells/ml in complete medium or complete medium with 10% v/v interleukin 2 (IL-2), respectively. One ml. aliquots were placed into wells of 24-well culture plates containing an equal volume of test compounds (diluted in the appropriate culture medium). The toxicity of each compound was assessed by determining the number of compound-exposed uninfected cells that remained after four days at 37° C. and 5% CO2. A p24 antigen ELISA assay was used to determine the level of virus released in the medium of the HIV-infected cultures. The p24 antigen assay used a HIV-1 anti-p24 specific monoclonal antibody as the capture antibody coated onto 96-well plates. […] P24 in the culture medium was quantitated against a standard curve containing known amounts of p24. The effective (EC50) and inhibitory (IC50) concentrations for anti-HIV activity and cytotoxicity, respectively, were determined.
^a Concentration which inhibits viral replication in H9 cells by 50%

Series [2] concerns HIV-1. Briefly: HIV-1 replication in PHA-stimulated PBMCs (p24 antigen ELISA). The series is classed as cell-based, HIV-1 (IIIB isolate). On the set-up: TI50: unit not given beside the values. Particulars: for EC50: Human immunodeficiency virus 1, PBMC. As to the method:
The T cell line, H9, and the promonocytic cell line, U937, were maintained separately in continuous culture with complete medium (RPMI 1640 with 10% fetal calf serum) at 5% CO2 and 37° C. The cell lines were used in experiments only when in the logarithmic phase of growth, whereas uninfected peripheral blood mononuclear cells (PBMCs) were first stimulated with PHA (1 μg/mL) for three days. All cell targets were incubated with HIV-1 (IIIB isolate, TCID50 10^4 IU/ml, at a multiplicity of infection of 0.01-0.01 IU/cell) for one hour at 37° C. and 5% CO2. The cell lines and PBMCs were washed thoroughly to remove unadsorbed virions and resuspended at 4×10^5 cells/ml in complete medium or complete medium with 10% v/v interleukin 2 (IL-2), respectively. One ml. aliquots were placed into wells of 24-well culture plates containing an equal volume of test compounds (diluted in the appropriate culture medium). The toxicity of each compound was assessed by determining the number of compound-exposed uninfected cells that remained after four days at 37° C. and 5% CO2. A p24 antigen ELISA assay was used to determine the level of virus released in the medium of the HIV-infected cultures. The p24 antigen assay used a HIV-1 anti-p24 specific monoclonal antibody as the capture antibody coated onto 96-well plates. Following a sample incubation period, rabbit serum containing antibodies for HIV-1 p24 was used to tag any p24 "captured: onto the microtiter well surface. Peroxidase conjugated goat anti-rabbit serum was then used to tag HIV-1 p24 specific rabbit antibodies that had complexed with captured p24. […] The cutoff for the p24 ELISA assay was 12.5 pg/ml. P24 in the culture medium was quantitated against a standard curve containing known amounts of p24. The effective (EC50) and inhibitory (IC50) concentrations for anti-HIV activity and cytotoxicity, respectively, were determined.

Series [3] has as its target T1, HIV-1 reverse transcriptase (Human immunodeficiency virus type 1 group M subtype B, UniProt P04585).
T1 construct: virion associated HIV-1 IIIB reverse transcriptase; endogenous in cells; host or cells: HIV-1 IIIB virions lysed in Triton X-100
The series is described as follows: HIV-1 reverse transcriptase assay. The series is classed as biochemical, HIV-1 IIIB. As to the method:
Ten microliters of virion associated HIV-1 IIIB reverse transcriptase in 1% Triton X-100 was mixed with 50 microliters of a reaction cocktail containing 50 mM Tri-HCl (pH 7.8), 75 mM KCl, 2 mM dithiothreitol, 5 mM MgCl2, 5 mg/ml poly (A) [Pharmacia], 0.25 unit/ml oligo(dT)[Pharmacia]; 0.05% Nonidet P40 and 10 mCi/ml ^32 P-dTTP in the presence of various concentrations of test compound. After incubating for one hour at 37° C., 40 microliters of the reaction mixture was applied to a Schleicher & Schuell NA 45 membrane saturated with […] (0.3M NaCl, 30 mM sodium citrate, pH 7.0) in a Schleicher & Schuell Minifold over one sheet of GB003 filter paper. Each well of the minifold was washed four times with 2×SSC. Autoradiography was performed, and radioactivity was quantified with a Packard Matrix (Meriden, Conn.) 9600 direct beta counter.

The test system of series [4] is HIV induced membrane fusion. Briefly: cells. It counts as cell-based, HIV-1LAI. To be noted: for IC100: Human immunodeficiency virus 1, CEM-4, 24 h, read-out: Fusion Assay IC100. The procedure: MOLT-4 cells (7×10^4) were incubated with HIV-1LAI chronically infected CEM cells (10^4) in 96-well half-area flat-bottomed plates (Costar) in 100 microliters culture medium were incubated with the cell mixtures at 37° C. for 24 hours. Multinucleated syncytia were enumerated by microscopic examination of the entire contents of each well.

The test system of series [5] is cells of the fusion assay. The series is described as follows: Cytotoxicity noted in the fusion assay. The series is classed as cell-based. To be noted: Table 1 footnotes; one-day fusion assay. As to the method:
Cell fusions were performed as described in Matthews et al., Proc. Natl. Acad. Sci. USA, 1987, 84, 5424-5428. MOLT-4 cells (7×10^4) were incubated with HIV-1LAI chronically infected CEM cells (10^4) in 96-well half-area flat-bottomed plates (Costar) in 100 microliters culture medium were incubated with the cell mixtures at 37° C. for 24 hours. Multinucleated syncytia were enumerated by microscopic examination of the entire contents of each well.
^d No noticeable cytotoxicity at 100 μg/mL
^e Toxic to the cells at 80 μg/mL in oneday fusion assay
^f Toxic at 40 μg/mL under the assay conditions

Series [6] concerns HIV-1. To be noted: cited from earlier work.
Where [7] appears, read: Human immunodeficiency virus 1, Lymphocyte, acutely infected H9 lymphocytes.
Setting [8] is: Table 1, H9 cells, therapeutic index.
Setting [9] is: acutely infected H9 lymphocytes.
[10] abbreviates: Table 1, inhibit 50% of HIV-1 RT activity, read-out: HIV-RT Assay IC50.
Where [11] appears, read: Human immunodeficiency virus 1, H9, Table 1, inhibits viral replication in H9 cells by 50%, read-out: EC50.
Setting [12] is: Human immunodeficiency virus 1, Lymphocyte, Table 2, H9.
The mark [13] stands for this setting: earlier data, H9 lymphocyte cells.
The mark [14] stands for this setting: earlier data, HIV-1 replication in H9 lymphocyte cells.

On to `CC(C)[C@@H]1CC[C@]2(C(=O)O)CC[C@]3(C)[C@H](CC[C@@H]4[C@@]5(C)CC[C@H](OC(=O)CC(C)(C)C(=O)O)C(C)(C)[C@@H]5CC[C@]43C)[C@@H]12` [Compound 8, 3-O-(3',3'-dimethylsuccinyl)-dihydrobetulinic acid], for which the EC50 in series [1] (setting [7]) was below 0.017 nM; in series [2], 1.75 ng/mL; in series [2] (PHA-stimulated PBMCs, read-out: EC50), 2.99 nM. The results for the T.I. in series [1] (setting [8]) and in series [1] (setting [9]) were 14,000-98,000 and “more than 400,000”, respectively. Also, in series [2] (PBMCs versus H9 cells), the “T.I. values in PBMCs compared with H9 cells” value is recorded as “lower than those in H9 cells”. Further, the TI50 in series [2] (Table 2, PBMCs) is listed as 2,286. The IC50 in series [3] (setting [10]) is above 170000 nM. Also, in series [4], the IC100 turned out to be 20 µg/mL. Moreover, the “cytotoxicity in fusion assay (footnotes d, e, f)” value (from here on “cytotoxicity in fusion assay”) in series [5] was “f (Toxic at 40 μg/mL under the assay conditions)”.

As for `CC(C)[C@@H]1CC[C@]2(C(=O)O)CC[C@]3(C)[C@H](CC[C@@H]4[C@@]5(C)CC[C@H](OC(=O)COCC(=O)O)C(C)(C)[C@@H]5CC[C@]43C)[C@@H]12` [Compound 10, 3-O-diglycolyl-dihydrobetulinic acid], the EC50 came out at 5.6 nM in series [1] (setting [11]) and 3.2 ng/mL in series [1] (setting [12]). In series [1] (setting [8]), the T.I. is recorded as 2,344.0. Also, the TI50 in series [1] (Table 2, H9) is reported as 2,344. In addition, in series [3] (setting [10]), the half-inhibitory concentration (IC50) was above 174000 nM. In series [4], the IC100 stood at 40 µg/mL. In addition, the “cytotoxicity in fusion assay” value in series [5] is reported as “e (Toxic to the cells at 80 μg/mL in oneday fusion assay)”.

As for `C=C(C)[C@@H]1CC[C@]2(C(=O)O)CC[C@]3(C)[C@H](CC[C@@H]4[C@@]5(C)CC[C@H](OC(=O)C(C)(C)CC(=O)O)C(C)(C)[C@@H]5CC[C@]43C)[C@@H]12` [Compound 2, 3-O-(2',2'-dimethylsuccinyl)betulinic acid], the EC50 in series [1] (setting [11]) and in series [1] (setting [7]) was 2700 nM each time. Moreover, the T.I. in series [1] (setting [8]) and in series [1] (setting [9]) was 5.9 in each case. The IC50 in series [3] (setting [10]) was above 171000 nM. Besides, the IC100 in series [4] was 20 µg/mL. The “inhibition of syncytia formation, compounds 2 and 3 compared” value in series [4] (compound 3 versus compound 2) is “inhibited syncytia formation at the same concentration”. For the same compound, in series [5], the “cytotoxicity in fusion assay” value is “d (No noticeable cytotoxicity at 100 μg/mL)”.

As to `C=C(C)[C@@H]1CC[C@]2(C(=O)O)CC[C@]3(C)[C@H](CC[C@@H]4[C@@]5(C)CC[C@H](OC(=O)COCC(=O)O)C(C)(C)[C@@H]5CC[C@]43C)[C@@H]12` [Compound 5, 3-O-diglycolyl-betulinic acid], the EC50 in series [1] (setting [11]) was determined as 10 nM; in series [1] (setting [12]) it was 10 ng/mL. Moreover, the T.I. in series [1] (setting [8]) was 1,172.0. In addition, the TI50 in series [1] (Table 2, H9) is reported as 1,500. Also, the half-inhibitory concentration (IC50) in series [3] (setting [10]) was above 175000 nM. Also, the IC100 in series [4] turned out to be 40 µg/mL. Further, in series [5], the “cytotoxicity in fusion assay” value is given as “e (Toxic to the cells at 80 μg/mL in oneday fusion assay)”.

Take `CC(=O)[C@@H]1CC[C@]2(C(=O)O)CC[C@]3(C)[C@H](CC[C@@H]4[C@@]5(C)CC[C@H](O)C(C)(C)[C@@H]5CC[C@]43C)[C@@H]12` [platanic acid]: the T.I. in series [6] (setting [13]) is 14. For the same compound, the concentration for a half-maximal effect (EC50) in series [6] (setting [14]) was 6500 nM.

`C=C(C)[C@@H]1CC[C@]2(C(=O)O)CC[C@]3(C)[C@H](CC[C@@H]4[C@@]5(C)CC[C@H](OC(=O)CC(C)(C)CC(=O)O)C(C)(C)[C@@H]5CC[C@]43C)[C@@H]12` [Compound 4, 3-O-(3',3'-dimethylglutaryl)-betulinic acid]: the 50% inhibitory concentration (IC50) in series [3] (setting [10]) is above 167000 nM. Moreover, in series [4], the IC100 stood at 30 µg/mL. Further, in series [5], the “cytotoxicity in fusion assay” value was “d (No noticeable cytotoxicity at 100 μg/mL)”.

In the case of `CC(C)[C@@H]1CC[C@]2(C(=O)O)CC[C@]3(C)[C@H](CC[C@@H]4[C@@]5(C)CC[C@H](O)C(C)(C)[C@@H]5CC[C@]43C)[C@@H]12` [Compound 6, dihydrobetulinic acid, reference compound], the EC50 in series [1] (setting [11]) was 900 nM; in series [6] (earlier data, anti-HIV activity, unit inferred), 900 nM. Also, the T.I. in series [1] (setting [8]) was 14.0; in series [6] (setting [13]), 14. This compound displayed an IC50 in series [3] above 218000 nM. The IC100 in series [4] is above 100 µg/mL.

Regarding `CC(C)[C@@H]1CC[C@]2(C(=O)O)CC[C@]3(C)[C@H](CC[C@@H]4[C@@]5(C)CC[C@H](OC(=O)C(C)(C)CC(=O)O)C(C)(C)[C@@H]5CC[C@]43C)[C@@H]12` [Compound 7, 3-O-(2',2'-dimethylsuccinyl)-dihydrobetulinic acid], the concentration giving a half-maximal response (EC50) in series [1] (setting [11]) and in series [1] (setting [7]) was 560 nM throughout. Moreover, the T.I. in series [1] (setting [8]) and in series [1] (setting [9]) was 13.8 throughout.

Consider `CC1(C)Oc2ccc3ccc(=O)oc3c2[C@@H](OC(=O)[C@@]23CC[C@@](C)(C(=O)O2)C3(C)C)[C@H]1OC(=O)[C@@]12CC[C@@](C)(C(=O)O1)C2(C)C` [DCK, 3',4'-di-O-(-)-camphanoyl-(+)-cis-khellactone], for which the “therapeutic index (T.I.)” value in series [6] (H9 lymphocyte cells, background) is 136,719. In series [6] (HIV replication in H9 lymphocyte cells, background), the EC50 is 0.4 nM.

With `C=C(C)[C@@H]1CC[C@]2(C(=O)O)CC[C@]3(C)[C@H](CC[C@@H]4[C@@]5(C)CC[C@H](O)C(C)(C)[C@@H]5CC[C@]43C)[C@@H]12` [Compound 1, betulinic acid, reference compound], the EC50 in series [1] (setting [11]) and in series [6] (setting [14]) was 1400 nM in each case. In addition, in series [3] (setting [10]), the half-inhibitory concentration (IC50) is above 219000 nM. For the same compound, in series [4], the IC100 is above 100 µg/mL.

Consider `C=C(C)[C@@H]1CC[C@]2(C(=O)O)CC[C@]3(C)[C@H](CC[C@@H]4[C@@]5(C)CC[C@H](OC(=O)CC(C)(C)C(=O)O)C(C)(C)[C@@H]5CC[C@]43C)[C@@H]12` [Compound 3, 3-O-(3',3'-dimethylsuccinyl)-betulinic acid], for which, in series [1] (Human immunodeficiency virus 1, Lymphocyte), the EC50 is below 0.017 nM. Moreover, in series [5], the “cytotoxicity in fusion assay” value is “d (No noticeable cytotoxicity at 100 μg/mL)”.
